The values below come from patent US20210100737A1, “TRANSDERMAL DELIVERY OF DRONABINOL” (Starton Therapeutics, Inc., priority 2019, published 2021).

Structures are written as SMILES.

Data set [1] is described as follows: Delivery of THC through human cadaver skin (U.S. Pat. No. 8,449,908). The format is in vitro ADME. The following applies: calculated from the cumulative amount in 96 hrs. How it is done:
U.S. Pat. No. 8,449,908 provides delivery of the cumulative amount of 10000 ng THC in 96 hrs through the human cadaver skin. This amount represents the flux of 60 ng/cm^2/hr. The patch area can be calculated using following equation: […]
In order to deliver a therapeutic dosage of 5 mg/day of delta-9-THC, a transdermal formulation would need to cover at least […] surface area of the patient's skin. This is an impractical patch size for any transdermal drug delivery system (TDDS).

For data set [2] the following is noted: in 96 hrs through human cadaver skin; U.S. Pat. No. 8,449,908; cited from earlier work.
For data set [3] the following is noted: cited from earlier work.
For data set [4] the following is noted: dosage of 7 mg/m^2; cited from earlier work.

Regarding `CCCCCc1cc(O)c2c(c1)OC(C)(C)[C@@H]1CCC(C)=C[C@@H]21` (relative stereo) [dronabinol, (6aR-trans)-6a,7,8,10a-tetrahydro-6,6,9-trimethyl-3-pentyl-6H-dibenzo[b,d]pyran-1-ol], in data set [1], the flux is reported as 60 ng/cm^2/hr. Further, in data set [2], the “cumulative amount of THC delivered” value is listed as 10000 ng. Also, the “share of the administered dose that reaches systemic circulation” value in data set [3] (after oral administration, first pass hepatic metabolism) was 10%-20%. For the same compound, in data set [3] (in vivo), the Alpha half-life result is “about 4 hours”. Further, in data set [4], the adverse effects result is “not induced”.
